From patent publication US11208386B2, “Inhibitors of protein arginine deiminases (PADs) and methods of preparation and use thereof” (University of Massachusetts, priority 2016, dated 2021)

Assays:
Assay type in all cases: biochemical
PAD1 = molecular target: T1, PAD1 (Homo sapiens, UniProt Q9ULC6); assay: Inactivation kinetics, PAD1; details: for kinact/KI: a: single kobs determined, b: from a linear fit; for Fold PAD1 Selectivity: kinact/KI relative to least inhibited isozyme (1.0)
T1 construct: made in house
T1 sequence (Q9ULC6 1-663): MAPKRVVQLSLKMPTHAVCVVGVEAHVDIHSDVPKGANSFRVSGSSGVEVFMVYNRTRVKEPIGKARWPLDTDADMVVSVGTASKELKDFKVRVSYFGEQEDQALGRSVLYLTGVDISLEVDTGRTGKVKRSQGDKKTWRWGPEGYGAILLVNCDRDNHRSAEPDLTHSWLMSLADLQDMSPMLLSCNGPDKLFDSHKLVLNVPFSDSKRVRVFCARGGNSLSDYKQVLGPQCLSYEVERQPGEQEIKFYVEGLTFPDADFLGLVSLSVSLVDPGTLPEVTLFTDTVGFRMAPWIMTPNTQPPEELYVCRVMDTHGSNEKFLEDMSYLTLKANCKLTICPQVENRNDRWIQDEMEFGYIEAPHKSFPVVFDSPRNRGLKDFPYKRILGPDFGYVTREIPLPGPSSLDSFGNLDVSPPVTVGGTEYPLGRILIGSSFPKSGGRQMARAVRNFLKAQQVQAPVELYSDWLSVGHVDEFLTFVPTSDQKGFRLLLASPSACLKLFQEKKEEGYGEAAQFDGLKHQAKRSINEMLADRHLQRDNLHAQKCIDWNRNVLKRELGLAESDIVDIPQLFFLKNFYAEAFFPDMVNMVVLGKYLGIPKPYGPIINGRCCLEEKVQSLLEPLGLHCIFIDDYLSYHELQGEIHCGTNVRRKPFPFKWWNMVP
Procedure, shortened: (§1)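 PAD1, 2 or 4 (2.0 μM) or PAD3 (5.0 μM) preincubated at 37 °C with varying inhibitor in 50 mM HEPES, 10 mM CaCl2, 2 mM DTT, pH 7.6. Timed aliquots assayed 15 min with 10 mM BAEE (BAA for PAD3); citrulline quantified by COLDER.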

PAD2 = molecular target: T2, PAD2 (Homo sapiens, UniProt Q9Y2J8); assay: Inactivation kinetics, PAD2; details: for kinact/KI: a: single kobs determined, b: from a linear fit, other footnotes: from kinact and KI; for Fold PAD2 Selectivity: kinact/KI relative to least inhibited isozyme (1.0); for Ki / kinact: PAD2, table footnote
T2 construct: made in house
T2 sequence (Q9Y2J8 whole entry): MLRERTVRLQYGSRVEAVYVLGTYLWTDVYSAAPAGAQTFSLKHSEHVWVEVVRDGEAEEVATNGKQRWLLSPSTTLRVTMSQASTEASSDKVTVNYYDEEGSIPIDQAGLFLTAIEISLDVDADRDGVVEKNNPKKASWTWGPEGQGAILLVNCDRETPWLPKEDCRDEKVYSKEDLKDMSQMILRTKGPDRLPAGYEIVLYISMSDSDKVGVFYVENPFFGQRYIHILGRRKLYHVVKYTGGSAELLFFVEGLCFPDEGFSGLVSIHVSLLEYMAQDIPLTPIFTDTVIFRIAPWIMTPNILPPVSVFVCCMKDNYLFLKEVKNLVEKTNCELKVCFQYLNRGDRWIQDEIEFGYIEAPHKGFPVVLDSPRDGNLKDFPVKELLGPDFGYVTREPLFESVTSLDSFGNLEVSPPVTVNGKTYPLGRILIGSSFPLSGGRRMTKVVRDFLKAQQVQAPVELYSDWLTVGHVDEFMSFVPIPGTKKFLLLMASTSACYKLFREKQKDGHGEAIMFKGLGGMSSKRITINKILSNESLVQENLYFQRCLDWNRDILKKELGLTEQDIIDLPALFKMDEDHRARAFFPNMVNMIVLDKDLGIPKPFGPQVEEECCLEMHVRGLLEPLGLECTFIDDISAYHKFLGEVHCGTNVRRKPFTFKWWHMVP
Procedure, shortened: as §1

PAD3 = molecular target: T3, PAD3 (Homo sapiens, UniProt Q9ULW8); assay: Inactivation kinetics, PAD3; details: for kinact/KI: a: single kobs determined; for Fold PAD3 Selectivity: kinact/KI relative to least inhibited isozyme (1.0)
T3 construct: made in house
T3 sequence (Q9ULW8 1-664): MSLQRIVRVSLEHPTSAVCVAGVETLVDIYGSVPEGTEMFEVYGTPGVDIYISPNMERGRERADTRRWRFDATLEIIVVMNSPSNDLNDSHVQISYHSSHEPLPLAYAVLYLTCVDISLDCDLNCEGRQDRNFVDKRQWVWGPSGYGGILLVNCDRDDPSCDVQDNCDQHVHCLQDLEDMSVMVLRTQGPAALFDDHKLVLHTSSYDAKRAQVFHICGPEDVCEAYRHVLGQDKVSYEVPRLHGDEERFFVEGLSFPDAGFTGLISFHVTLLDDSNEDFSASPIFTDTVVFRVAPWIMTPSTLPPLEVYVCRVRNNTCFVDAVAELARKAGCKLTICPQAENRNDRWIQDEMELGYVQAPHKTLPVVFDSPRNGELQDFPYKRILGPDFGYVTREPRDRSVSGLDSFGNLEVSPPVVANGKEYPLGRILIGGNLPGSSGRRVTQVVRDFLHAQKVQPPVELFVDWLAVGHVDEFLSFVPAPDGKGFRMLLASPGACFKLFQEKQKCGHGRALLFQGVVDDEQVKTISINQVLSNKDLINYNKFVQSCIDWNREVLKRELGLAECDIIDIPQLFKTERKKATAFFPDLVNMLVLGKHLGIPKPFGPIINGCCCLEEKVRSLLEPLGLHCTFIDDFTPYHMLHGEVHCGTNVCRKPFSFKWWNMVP
Procedure, shortened: as §1

PAD4 = molecular target: T4, PAD4 (Homo sapiens, UniProt Q9UM07); assay: Inactivation kinetics, PAD4; details: for kinact/KI: a: single kobs determined, b: from a linear fit; for Fold PAD4 Selectivity: kinact/KI relative to least inhibited isozyme (1.0)
T4 construct: made in house
T4 sequence (Q9UM07 whole entry): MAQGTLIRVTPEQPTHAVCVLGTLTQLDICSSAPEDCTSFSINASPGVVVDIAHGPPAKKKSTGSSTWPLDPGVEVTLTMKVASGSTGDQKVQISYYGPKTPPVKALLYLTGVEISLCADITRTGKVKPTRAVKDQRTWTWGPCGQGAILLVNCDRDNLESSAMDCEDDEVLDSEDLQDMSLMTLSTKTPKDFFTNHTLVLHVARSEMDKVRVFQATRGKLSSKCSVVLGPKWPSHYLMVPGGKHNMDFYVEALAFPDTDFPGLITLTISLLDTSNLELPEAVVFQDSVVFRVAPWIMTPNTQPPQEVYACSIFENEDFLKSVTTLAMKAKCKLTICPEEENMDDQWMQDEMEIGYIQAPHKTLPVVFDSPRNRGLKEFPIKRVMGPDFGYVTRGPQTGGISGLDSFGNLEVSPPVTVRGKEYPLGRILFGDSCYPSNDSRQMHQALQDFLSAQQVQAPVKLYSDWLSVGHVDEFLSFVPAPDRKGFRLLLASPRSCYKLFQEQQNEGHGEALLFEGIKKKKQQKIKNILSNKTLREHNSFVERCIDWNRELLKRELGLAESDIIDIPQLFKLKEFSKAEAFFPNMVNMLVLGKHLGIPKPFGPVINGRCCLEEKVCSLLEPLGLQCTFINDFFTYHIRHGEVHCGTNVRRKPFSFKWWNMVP
Procedure, shortened: as §1

SMILES | kinact/KI (PAD1) | Fold PAD1 Selectivity (PAD1) | kinact/KI (PAD2) | Fold PAD2 Selectivity (PAD2) | kinact/KI (PAD3) | Fold PAD3 Selectivity (PAD3) | kinact/KI (PAD4) | Fold PAD4 Selectivity (PAD4) | Ki (PAD2) | kinact (PAD2)
COc1cccc2c1nc([C@H](CCCNC(=N)CCl)NC(=O)c1cccc3c1C(=O)NC3)n2C [Compound 7l, N1-(3-oxoisoindoline)benzoyl-N5-(2-chloro-1-iminoethyl)-1-(4-methoxy-1-methyl-benzo[d]imidazol-2-yl)-L-ornithine] | 1300 M⁻¹ s⁻¹ | 3.9 fold | 1300 M⁻¹ s⁻¹ | 3.9 fold | 332 M⁻¹ s⁻¹ | 1.0 fold | 422 M⁻¹ s⁻¹ | 1.3 fold |  | 
CCOc1cccc2c1nc([C@H](CCCNC(=N)CF)NC(=O)c1cccc3c1C(=O)NC3)n2C [Compound 7m] | 1070 M⁻¹ s⁻¹ | 65 fold | 1570 M⁻¹ s⁻¹ | 95 fold | 20 M⁻¹ s⁻¹ | 1.2 fold | 16.5 M⁻¹ s⁻¹ | 1.0 fold | 55.2 µM | 0.0868 s⁻¹
CCOc1cccc2c1nc([C@H](CCCNC(=N)CCl)NC(=O)c1cccc3c1C(=O)NC3)n2C [Compound 7n] | 982 M⁻¹ s⁻¹ | 24 fold | 1200 M⁻¹ s⁻¹ | 30 fold | 108 M⁻¹ s⁻¹ | 2.7 fold | 40.2 M⁻¹ s⁻¹ | 1.0 fold |  | 
COc1ccc2c(c1)nc([C@H](CCCNC(=N)CF)NC(=O)c1cccc3c1C(=O)NC3)n2C [Compound 7o, N1-(3-oxoisoindoline)benzoyl-N5-(2-fluoro-1-iminoethyl)-1-(5-methoxy-1-methyl-benzo[d]imidazol-2-yl)-L-ornithine] | 2080 M⁻¹ s⁻¹ | 121 fold | 1960 M⁻¹ s⁻¹ | 114 fold | 17.2 M⁻¹ s⁻¹ | 1.0 fold | 20.5 M⁻¹ s⁻¹ | 1.2 fold | 20.7 µM | 0.0403 s⁻¹
COc1ccc2c(c1)nc([C@H](CCCNC(=N)CCl)NC(=O)c1cccc3c1C(=O)NC3)n2C [Compound 7p, N1-(3-oxoisoindoline)benzoyl-N5-(2-chloro-1-iminoethyl)-1-(5-methoxy-1-methyl-benzo[d]imidazol-2-yl)-L-ornithine] | 2210 M⁻¹ s⁻¹ | 25 fold | 908 M⁻¹ s⁻¹ | 10 fold | 218 M⁻¹ s⁻¹ | 2.4 fold | 90.2 M⁻¹ s⁻¹ | 1.0 fold |  | 
CCn1c([C@H](CCCNC(=N)CF)NC(=O)c2cccc3c2C(=O)NC3)nc2c(OC)cccc21 [Compound 7q, N1-(3-oxoisoindoline)benzoyl-N5-(2-fluoro-1-iminoethyl)-1-(4-methoxy-1-ethyl-benzo[d]imidazol-2-yl)-L-ornithine] | 998 M⁻¹ s⁻¹ | 38 fold | 845 M⁻¹ s⁻¹ | 32 fold | 26.7 M⁻¹ s⁻¹ | 1.0 fold | 26.3 M⁻¹ s⁻¹ | 1.0 fold |  | 

The remaining lines, values ahead:

kinact/KI (PAD1) | Fold PAD1 Selectivity (PAD1) | kinact/KI (PAD2) | Fold PAD2 Selectivity (PAD2) | kinact/KI (PAD3) | Fold PAD3 Selectivity (PAD3) | kinact/KI (PAD4) | Fold PAD4 Selectivity (PAD4) | Ki (PAD2) | kinact (PAD2) | SMILES
1790 M⁻¹ s⁻¹ | 50 fold | 657 M⁻¹ s⁻¹ | 19 fold | 103 M⁻¹ s⁻¹ | 2.9 fold | 35.5 M⁻¹ s⁻¹ | 1.0 fold |  |  | CCn1c([C@H](CCCNC(=N)CCl)NC(=O)c2cccc3c2C(=O)NC3)nc2c(OC)cccc21 [Compound 7r, N1-(3-oxoisoindoline)benzoyl-N5-(2-chloro-1-iminoethyl)-1-(4-methoxy-1-ethyl-benzo[d]imidazol-2-yl)-L-ornithine]
974 M⁻¹ s⁻¹ | 13 fold | 415 M⁻¹ s⁻¹ | 5.4 fold | 76.2 M⁻¹ s⁻¹ | 1.0 fold | 264 M⁻¹ s⁻¹ | 3.5 fold |  |  | COc1ccc2[nH]c([C@H](CCCNC(=N)CF)NC(=O)c3cccc4c3C(=O)NC4)nc2c1 [Compound 7s, N1-(3-oxoisoindoline)benzoyl-N5-(2-fluoro-1-iminoethyl)-1-(5-methoxy-1H-benzo[d]imidazol-2-yl)-L-ornithine]
2130 M⁻¹ s⁻¹ | 7.3 fold | 1000 M⁻¹ s⁻¹ | 3.5 fold | 291 M⁻¹ s⁻¹ | 1.0 fold | 630 M⁻¹ s⁻¹ | 2.2 fold |  |  | COc1ccc2[nH]c([C@H](CCCNC(=N)CCl)NC(=O)c3cccc4c3C(=O)NC4)nc2c1 [Compound 7t, N1-(3-oxoisoindoline)benzoyl-N5-(2-chloro-1-iminoethyl)-1-(5-methoxy-1H-benzo[d]imidazol-2-yl)-L-ornithine]
316 M⁻¹ s⁻¹ | 24 fold | 658 M⁻¹ s⁻¹ | 50 fold | 33 M⁻¹ s⁻¹ | 2.5 fold | 13.2 M⁻¹ s⁻¹ | 1.0 fold |  |  | CCn1c([C@H](CCCNC(=N)CF)NC(=O)c2cccc3c2C(=O)NC3)nc2cc(OC)ccc21 [Compound 7u, N1-(3-oxoisoindoline)benzoyl-N5-(2-fluoro-1-iminoethyl)-1-(5-methoxy-1-ethyl-benzo[d]imidazol-2-yl)-L-ornithine]
1010 M⁻¹ s⁻¹ | 21 fold | 780 M⁻¹ s⁻¹ | 16 fold | 214 M⁻¹ s⁻¹ | 4.4 fold | 48.8 M⁻¹ s⁻¹ | 1.0 fold |  |  | CCn1c([C@H](CCCNC(=N)CCl)NC(=O)c2cccc3c2C(=O)NC3)nc2cc(OC)ccc21 [Compound 7v, N1-(3-oxoisoindoline)benzol-N5-(2-chloro-1-iminoethyl)-1-(5-methoxy-1-ethyl-benzo[d]imidazol-2-yl)-L-ornithine]
807 M⁻¹ s⁻¹ | 3.4 fold | 240 M⁻¹ s⁻¹ | 1.0 fold | 248 M⁻¹ s⁻¹ | 1.0 fold | 248 M⁻¹ s⁻¹ | 1.0 fold |  |  | CCN1Cc2cccc(C(=O)N[C@@H](CCCNC(=N)CF)c3nc4ccccc4[nH]3)c2C1=O [Compound 8a, N1-(2-ethyl-3-oxoisoindoline)benzol-N5-(2-fluoro-1-iminoethyl)-1-(1H-benzo[d]imidazol-2-yl)-L-ornithine]
2530 M⁻¹ s⁻¹ | 4.3 fold | 888 M⁻¹ s⁻¹ | 1.5 fold | 583 M⁻¹ s⁻¹ | 1.0 fold | 810 M⁻¹ s⁻¹ | 1.4 fold |  |  | CCN1Cc2cccc(C(=O)N[C@@H](CCCNC(=N)CCl)c3nc4ccccc4[nH]3)c2C1=O [Compound 8b, N1-(2-ethyl-3-oxoisoindoline)benzol-N5-(2-chloro-1-iminoethyl)-1-(1H-benzo[d]imidazol-2-yl)-L-ornithine]
308 M⁻¹ s⁻¹ | 6.1 fold | 546 M⁻¹ s⁻¹ | 11 fold | 95.8 M⁻¹ s⁻¹ | 1.9 fold | 50.5 M⁻¹ s⁻¹ | 1.0 fold |  |  | CCN1Cc2cccc(C(=O)N[C@@H](CCCNC(=N)CF)c3nc4ccccc4n3C)c2C1=O [Compound 8c, N1-(2-ethyl-3-oxoisoindoline)benzoyl-N5-(2-fluoro-1-iminoethyl)-1-(1-methyl-benzo[d]imidazol-2-yl)-L-ornithine]
